Measurements from patent US11744819B2, “Antibiotic cannabinoid-terpene formulations” (priority 2019, dated 2023).
Converted amounts (≈) assume the structure as drawn. “And” between values parts separate entries of the source, which are not always exact repeats. Equal values may be shown once. Read-outs that look alike come from different tables or passages of the source.

Experiments:
E. faecium 3303 = experiment: microbe, parasite or virus in culture; assay type: cell-based, Enterococcus faecium; conditions: for MIC Alone / MIC In combination / Max. fold change in MIC: E. faecium 3303; for MIC Alone: compound alone in checkerboard; for Max. fold change in MIC: decrease; for activities of the terpene with CBC, CBO, or CBG: terpene-cannabinoid combinations
Source text: In therapeutic applications, synergy between active ingredients occurs when an observed combined therapeutic effect is greater than the sum of therapeutic effects of individual active ingredients, or a new therapeutic effect is produced that the active ingredients could not produce alone. […] In this context, the enhancement of therapeutic effect may take the form of increased efficacy or potency and/or decreased adverse effects. The synergistic effect may be mediated in whole or in part by the pharmacokinetics and/or pharmacodynamics of the active ingredients in a subject, so that the amount and proportion of the ingredients in the formulation may be synergistic in vivo. This in vivo synergy may be effected with a formulation that includes the active ingredients in amounts and proportions that are also synergistic in in vitro assays of efficacy. As used herein, the term “synergistically effective amounts” accordingly refers to amounts that are synergistic in vivo and/or in vitro. A numeric quantification of synergy is often expressed as a fractional inhibitory concentration index (FICI), which represents the sum of the fractional inhibitory concentrations (FICs) of each drug tested, where the FIC is determined for each drug by dividing the minimum inhibitory concentration (MIC, the lowest concentration of the drug which prevents visible growth of the bacterium in a standard in vitro assay-standard colorometric assay based on resazurin) of each drug when used in combination by the MIC of each drug when used alone. In very general terms, a FICI lower or higher than 1 indicates positively correlated activity (at least additive or potentiation) or an absence of positive interactions, respectively. More definitively, synergy of two compounds may be conservatively defined as a FICI of ::::0.5 (see Odds, 2003; with additivity or potentiation corresponding to a FICI of >0.5 to ::::0.75; no interaction (indifference) corresponding to a FICI of >1 to ::::4; and antagonism corresponding to a FICI of >>4). Synergy of three compounds has been defined as a FICI of ::::1.0. (Berenbaum, 1978; Yu et al., 1980). To estimate the optimal concentrations in triple combinations, the optimal concentrations of trans-caryophyllene and cannabinoid were utilized in combination with a series of daptomycin dilutions.
(§1) Pre-cultures of bacteria growing in their corresponding liquid media (defined below) were diluted to an 00600 of 0.0025 and 100 μl was added to 100 μl of medium containing serial 2-fold dilutions of cannabinoid (cannabinoid stocks, in methanol or acetonitrile for acidic forms, were diluted in growth medium) in 96-well plates. Plates were then incubated for 20-24 h at 37° C., and growth was recorded as 00600 in a Thermo Scientific™ Varioskan™ Flash Multimode Reader.
Method for Tables 4-7. Interaction of Cannabinoids CBC, CBD and CBG with Terpenes and Daptomycin:
(§2) FICI values was determined in a 96 well checkerboard format using the MIC assay for cannabinoids (compound A), terpenes (compound B), and daptomycin (compound C) alone and in combinations. Terpene stocks were prepared in DMSO and diluted in the growth medium. The fractional inhibitory concentration for each compound was calculated as follows: FICA=(MIC of compound A in the presence of compound B)/(MIC of compound A alone). Similarly, the FICs for compounds Band C were calculated. The FICI was calculated as FICA plus FICs plus FICc.

E. faecium VRE 55A6 = experiment: microbe, parasite or virus in culture; assay type: cell-based, Enterococcus faecium; conditions: E. faecium VRE 55A6
Source text: In therapeutic applications, synergy between active ingredients occurs when an observed combined therapeutic effect is greater than the sum of therapeutic effects of individual active ingredients, or a new therapeutic effect is produced that the active ingredients could not produce alone. […] In this context, the enhancement of therapeutic effect may take the form of increased efficacy or potency and/or decreased adverse effects. The synergistic effect may be mediated in whole or in part by the pharmacokinetics and/or pharmacodynamics of the active ingredients in a subject, so that the amount and proportion of the ingredients in the formulation may be synergistic in vivo. This in vivo synergy may be effected with a formulation that includes the active ingredients in amounts and proportions that are also synergistic in in vitro assays of efficacy. As used herein, the term “synergistically effective amounts” accordingly refers to amounts that are synergistic in vivo and/or in vitro. A numeric quantification of synergy is often expressed as a fractional inhibitory concentration index (FICI), which represents the sum of the fractional inhibitory concentrations (FICs) of each drug tested, where the FIC is determined for each drug by dividing the minimum inhibitory concentration (MIC, the lowest concentration of the drug which prevents visible growth of the bacterium in a standard in vitro assay-standard colorometric assay based on resazurin) of each drug when used in combination by the MIC of each drug when used alone. In very general terms, a FICI lower or higher than 1 indicates positively correlated activity (at least additive or potentiation) or an absence of positive interactions, respectively. More definitively, synergy of two compounds may be conservatively defined as a FICI of ::::0.5 (see Odds, 2003; with additivity or potentiation corresponding to a FICI of >0.5 to ::::0.75; no interaction (indifference) corresponding to a FICI of >1 to ::::4; and antagonism corresponding to a FICI of >>4). […] (Berenbaum, 1978; Yu et al., 1980). To estimate the optimal concentrations in triple combinations, the optimal concentrations of trans-caryophyllene and cannabinoid were utilized in combination with a series of daptomycin dilutions.
as §1, §2

[1] = tested on: E. faecium clinical isolate 69C6 (vancomycin resistant); conditions: clinical enterococcal strain 69C6, vancomycin resistant
[2] = tested on: Mycobacterium tuberculosis H37Rv; experiment: MIC determination (PrestoBlue); assay type: cell-based
[3] = tested on: Staphylococcus epidermidis ATCC 12228; experiment: MIC determination; assay type: cell-based; conditions: Staphylococcus epidermidis, ATCC12228
[4] = tested on: Staphylococcus aureus MRSA; experiment: microbe, parasite or virus in culture; assay type: cell-based
[5] = tested on: Mycobacterium abscessus ATCC 19977; experiment: MIC determination (resazurin); assay type: cell-based
[6] = tested on: Enterococcus faecium 33D3
Enterococcus faecalis = experiment: MIC determination; assay type: cell-based
[7] = tested on: E. faecium clinical isolate 58C9 (vancomycin and daptomycin resistant); conditions: clinical enterococcal strain 58C9, vancomycin and daptomycin resistant
[8] = tested on: E. faecium clinical isolate 55A6 (vancomycin and daptomycin resistant); conditions: clinical enterococcal strain 55A6, vancomycin and daptomycin resistant
[9] = tested on: Streptococcus pyogenes ATCC 51878; experiment: MIC determination; assay type: cell-based; conditions: Streptococcus pyogenes, ATCC51878
[10] = tested on: Staphylococcus epidermidis ATCC 14990; experiment: MIC determination; assay type: cell-based; conditions: Staphylococcus epidermidis, ATCC14990
[11] = tested on: E. faecium clinical isolate 58C9 (vancomycin and daptomycin resistant); experiment: microbe, parasite or virus in culture; conditions: Enterococcus faecium
[12] = tested on: E. faecium clinical isolate 55A6 (vancomycin and daptomycin resistant); experiment: microbe, parasite or virus in culture; conditions: Enterococcus faecium
[13] = tested on: Enterococcus faecium 33D3; experiment: microbe, parasite or virus in culture
[14] = tested on: E. faecium clinical isolate 69C6 (vancomycin resistant); experiment: microbe, parasite or virus in culture; conditions: Enterococcus faecium
[15] = triple, with daptomycin and CBC
[16] = triple, with daptomycin and CBD
[17] = triple, with daptomycin and CBG
[18] = Mycobacterium tuberculosis, H37RV, Media 7H9, read-out: MIC
[19] = Mycobacterium tuberculosis, H37RV, Media PB, read-out: MIC
[20] = Mycobacteroides abscessus, ATCC19977
[21] = 33D3, Enterococcus faecium 33D3 (Table 1)
[22] = 33D3, clinical enterococcal strain 3303

`C=C1CC/C=C(\C)CC[C@@H]2[C@@H]1CC2(C)C` (relative stereo) [Trans-caryophyllene, trans-caryophyllene] was tested, and the “MIC Alone” value (E. faecium 3303) was >16 µg/mL and 16 µg/mL, the “MIC Alone” value (E. faecium 3303; listed as Tram-caryophyllene) was 32 µg/mL and the “MIC In combination” value (E. faecium 3303; pairwise, with CBC) was 0.25 µg/mL. The “Max. fold change in MIC” value (E. faecium 3303; pairwise, with CBC) was 64 l fold, the “MIC In combination” value (E. faecium 3303; pairwise, with CBD) was 2 µg/mL and the “MIC In combination” value (E. faecium 3303; pairwise, with CBG) was 4 µg/mL. For the same compound, the “Max. fold change in MIC” value (E. faecium 3303; pairwise, with CBG) was 8″′ fold, the “MIC In combination” value (E. faecium 3303; pairwise, with daptomycin) was 4 µg/mL and the “Max. fold change in MIC” value (E. faecium 3303; pairwise, with daptomycin) was >4 l fold and >4″′ fold. For the same compound, the “MIC In combination” value (E. faecium 3303; [15]) was 2 µg/mL, the “Max. fold change in MIC” value (E. faecium 3303; [15]) was 8 l fold and the “MIC In combination” value (E. faecium 3303; [16]) was 2 µg/mL. The “Max. fold change in MIC” value (E. faecium 3303; [16]) was 8 fold, the “MIC In combination” value (E. faecium 3303; [17]) was 1 µg/mL and the “Max. fold change in MIC” value (E. faecium 3303; [17]) was 16 fold. The “activities of the terpene with CBC, CBO, or CBG” value (E. faecium 3303) was “synergistic activities”, the “MIC In combination” value (E. faecium VRE 55A6; pairwise, with CBC) was 1 µg/mL and the “Max. fold change in MIC” value (E. faecium VRE 55A6; pairwise, with CBC) was over 32 fold. The “MIC In combination” value (E. faecium VRE 55A6; pairwise, with CBD) was 8 µg/mL, the “Max. fold change in MIC” value (E. faecium VRE 55A6; pairwise, with CBD) was over 4 fold and the “MIC In combination” value (E. faecium VRE 55A6; pairwise, with CBG) was over 32 µg/mL. For the same compound, the “Max. fold change in MIC” value (E. faecium VRE 55A6; pairwise, with CBG) was “none”, the “MIC In combination” value (E. faecium VRE 55A6; pairwise, with daptomycin) was 2 µg/mL and the “Max. fold change in MIC” value (E. faecium VRE 55A6; pairwise, with daptomycin) was over 8 fold. For the same compound, the “MIC In combination” value (E. faecium VRE 55A6; [15]) was 2 µg/mL, the “Max. fold change in MIC” value (E. faecium VRE 55A6; [15]) was over 32 fold and the “MIC In combination” value (E. faecium VRE 55A6; [16]) was 2 µg/mL. The “Max. fold change in MIC” value (E. faecium VRE 55A6; [16]) was over 32 fold, the “MIC In combination” value (E. faecium VRE 55A6; [17]) was 2 µg/mL and the “Max. fold change in MIC” value (E. faecium VRE 55A6; [17]) was over 32 fold.

`CCCCCc1cc2c(c(O)c1C(=O)O)C=CC(C)(CCC=C(C)C)O2` (stereo not shown) [CBCA, cannabichromic acid] showed an MIC [1] of 4 µg/mL (≈ 11.2 µM), an MIC ([2]; Media 7H9) of 2 µg/mL (≈ 5.58 µM) and an MIC ([2]; Media PB) of 4 µg/mL (≈ 11.2 µM). For the same compound, the MIC [3] was 2 µg/mL (≈ 5.58 µM), the MIC [4] was 4 µg/mL (≈ 11.2 µM) and the MIC ([5]; Mycobacterium abscessus ATCC 19977) was 4 µg/mL (≈ 11.2 µM). It also gave an MIC ([6]; Enterococcus faecium 33D3 (Table 1)) of 4 µg/mL (≈ 11.2 µM), an MIC ([6]; clinical enterococcal strain 3303) of 4 µg/mL (≈ 11.2 µM) and an MIC (Enterococcus faecalis) of 4 µg/mL (≈ 11.2 µM). The MIC [7] was 4 µg/mL (≈ 11.2 µM), the MIC [8] was 2 µg/mL (≈ 5.58 µM) and the MIC [9] was 0.5 to 1 µg/mL. The MIC [10] was 2 µg/mL (≈ 5.58 µM).

In the case of `C=C(C)[C@@H]1CCC(C)=C[C@H]1c1c(O)cc(CCCCC)c(C(=O)O)c1O` [CBDA, cannabidiolic acid], the MIC [2, 18] is reported as 2 µg/mL (≈ 5.58 µM), the MIC [2, 19] is reported as 4 µg/mL (≈ 11.2 µM) and the MIC [3] is reported as 4 µg/mL (≈ 11.2 µM). It also gave an MIC [4] of 16 µg/mL (≈ 44.6 µM), an MIC [5, 20] of 32 µg/mL (≈ 89.3 µM) and an MIC [11] of 16 µg/mL (≈ 44.6 µM). It also gave an MIC [12] of 16 µg/mL (≈ 44.6 µM), an MIC [13, 21] of 16 µg/mL (≈ 44.6 µM) and an MIC [13, 22] of 16 µg/mL (≈ 44.6 µM). The MIC [14] was 16 µg/mL (≈ 44.6 µM), the MIC (Enterococcus faecalis) was 16 µg/mL (≈ 44.6 µM) and the MIC [9] was 8 µg/mL (≈ 22.3 µM). The MIC [10] was 4 µg/mL (≈ 11.2 µM).

Compound `CCCCCc1cc(O)c(C/C=C(\C)CCC=C(C)C)c(O)c1C(=O)O` [CBGA, cannabigerolic acid] has an MIC [2, 18] of 4 µg/mL (≈ 11.1 µM), an MIC [2, 19] of 2 µg/mL (≈ 5.55 µM) and an MIC [3] of 2 µg/mL (≈ 5.55 µM). For the same compound, the MIC [4] was 1 µg/mL (≈ 2.77 µM), the MIC [5, 20] was 16 µg/mL (≈ 44.4 µM) and the MIC [11] was 16 µg/mL (≈ 44.4 µM). The MIC [12] was 8 µg/mL (≈ 22.2 µM), the MIC [13, 21] was 16 µg/mL (≈ 44.4 µM) and the MIC [13, 22] was 16 µg/mL (≈ 44.4 µM). For the same compound, the MIC [14] was 8 µg/mL (≈ 22.2 µM), the MIC (Enterococcus faecalis) was 8 µg/mL (≈ 22.2 µM) and the MIC [9] was 2 µg/mL (≈ 5.55 µM). For the same compound, the MIC [10] was 2 µg/mL (≈ 5.55 µM).

`C/C1=C\CC/C(C)=C/CC(C)(C)/C=C/C1` [a-humulene] was tested, and the “activities of the terpene with CBC, CBO, or CBG” value (E. faecium 3303) was “synergistic activities”.
